Patent US20250127937A1, “FAP INHIBITOR” (UNIVERSITÄT HEIDELBERG, priority 2018, published 2025)

Experiments:
[1] = Blood pool clearance from SUVmean of the heart; type: in vivo
Text: The calculated plateau values, which were higher for Ga-68 labeled FAPI-13, -21, -36 and AlF-18 labeled FAPI-74 theoretically correspond to a higher fraction of compound which is not cleared due to unspecific binding or by remaining in circulating (Table 12).

[2] = molecular target: recombinant human FAP protein (Homo sapiens (Human), UniProt Q12884); test: Enzyme inhibition assay with fluorogenic substrate Z-GP-AMC; type: biochemical; conditions: 0-1000 nM/well, 30 min at 37° C.
[3] = Preliminary dosimetry estimate in patients; type: in vivo, human
HT-1080-FAP cells = test: Efflux experiments in HT-1080-FAP cells; type: cell-based, human; conditions: after 24 h in compound-free medium
Description: Radioligand binding studies were performed using HT-1080-FAP cells. The radiolabeled compound was added to the cell culture and incubated for different time intervals ranging from 10 min to 24 h. Competition experiments were performed by simultaneous exposure to unlabeled (10^−5 M to 10^−9M) and radiolabeled compound for 60 min. For efflux experiments, radioactive medium was removed after incubation for 60 min and replaced by non-radioactive medium for time intervals ranging from 1 to 24 h. For internalization experiments, surface bound activity was removed by incubating the cells with 1 M glycine-HCl buffer for 10 min. The radioactivity was measured using a γ-counter, normalized to 1 mio cells and calculated as percentage of applied dose (% ID).
For radioligand binding studies, cells were seeded in 6-well plates and cultivated for 48 h to a final confluence of approx. 80-90% (1.2-2 mio cells/well). The medium was replaced by 1 mL fresh medium without fetal calf serum. The radiolabeled compound was added to the cell culture and incubated for different time intervals ranging from 10 min to 24 h. Competition experiments were performed by simultaneous exposure to unlabeled (10^−5 M to 10^−9 M) and radiolabeled compound for 60 min. For efflux experiments, radioactive medium was removed after incubation for 60 min and replaced by non-radioactive medium for time intervals ranging from 1 to 24 h. In all experiments, the cells were washed with 1 mL phosphate-buffered saline pH 7.4 for 2 times and subsequently lysed with 1.4 ml lysis buffer (0.3 M NaOH, 0.2% SDS). Radioactivity was determined in a γ-counter (Cobra II, Packard), normalized to 1 mio cells and calculated as percentage of the applied dose (% ID). Each experiment was performed 3 times, and 3 repetitions per independent experiment were acquired.

[4] = test system: HT-1080-FAP tumor xenografts; test: Organ distribution ex vivo in HT-1080-FAP tumor bearing nude mice; set-up: species or system mouse
Description: For in vivo experiments, 8 week old BALB/c nu/nu mice (Charles River) were subcutaneously inoculated into the right trunk with 5×10^6 with HT-1080-FAP, Capan-2 or SK-LMS-1 cells, respectively. When the size of the tumor reached approximately 1 cm^3, the radiolabeled compound was injected via the tail vein (˜10 MBq for small-animal PET imaging; ˜1 MBq for organ distribution). PET imaging was performed up to 140 min after intravenous injection of 1 MBq of Ga-68 labeled compound per mouse using the Inveon PET small-animal PET scanner (Siemens). Images were reconstructed iteratively using the 3D-OSEM+MAP method and were converted to standardized uptake value (SUV) images. Quantification was done using a ROI technique and expressed as SUV mean. For organ distribution of Lu-177 labeled compound (approx. […] per mouse), the animals (n=3 for each time point) were sacrificed after indicated time points (from 30 min to 24 h). The distributed radioactivity was measured in all dissected organs and in blood using a γ-counter (Cobra Autogamma, Packard). The values are expressed as percentage of injected dose per gram of tissue (% ID/g).

[5] = test system: tumor lesions and normal tissue of cancer patients; test: Clinical PET/CT imaging in cancer patients (SUV); type: in vivo, human
Description: Diagnostic imaging of more than 100 patients was performed under the conditions of the updated declaration of Helsinki, § 37 (Unproven interventions in clinical practice) and in accordance to the German Pharmaceuticals Law § 13 (2b) for medical reasons using either ^68Ga-FAPI-02 or -04, which was applied intravenously (20 nmol, 122-336 MBq), 10 min, 1 and 3 hours post tracer administration. Variation of injected radiotracer activity is due to the short half-life of ^68Ga and the variable elution efficiencies obtained during the lifetime of the ^68Ge/^68Ga generator. […] The PET/CT scans were performed with a Biograph mCT Flow™ PET/CT-Scanner (Siemens Medical Solution) using the following parameters: slice thickness of 5 mm, increment of 3-4 mm, soft-tissue reconstruction kernel, care dose. Immediately after CT scanning, a whole-body PET was acquired in 3D (matrix 200×200) in FlowMotion™ with 0.7 cm/min. The emission data were corrected for random, scatter and decay. Reconstruction was conducted with an ordered subset expectation maximisation (OSEM) algorithm with 2 iterations/21 subsets and Gauss-filtered to a transaxial resolution of 5 mm at full-width half-maximum (FWHM). Attenuation correction was performed using the low-dose non-enhanced CT data. The quantitative assessment of standardized uptake values (SUV) was done using a region of interest technique.
For the normal tissue of 16 organs, a 2 cm Spheric-VOI was placed in the parenchyma, for tumor lesions a threshold segmented VOI was used to quantify SUVmean/max^3.

[6] = Lu-177 labeled, 1 h after i.v., HT-1080-FAP, mean ± SD, n = 3

recombinant human FAP protein, sequence (Q12884 whole entry): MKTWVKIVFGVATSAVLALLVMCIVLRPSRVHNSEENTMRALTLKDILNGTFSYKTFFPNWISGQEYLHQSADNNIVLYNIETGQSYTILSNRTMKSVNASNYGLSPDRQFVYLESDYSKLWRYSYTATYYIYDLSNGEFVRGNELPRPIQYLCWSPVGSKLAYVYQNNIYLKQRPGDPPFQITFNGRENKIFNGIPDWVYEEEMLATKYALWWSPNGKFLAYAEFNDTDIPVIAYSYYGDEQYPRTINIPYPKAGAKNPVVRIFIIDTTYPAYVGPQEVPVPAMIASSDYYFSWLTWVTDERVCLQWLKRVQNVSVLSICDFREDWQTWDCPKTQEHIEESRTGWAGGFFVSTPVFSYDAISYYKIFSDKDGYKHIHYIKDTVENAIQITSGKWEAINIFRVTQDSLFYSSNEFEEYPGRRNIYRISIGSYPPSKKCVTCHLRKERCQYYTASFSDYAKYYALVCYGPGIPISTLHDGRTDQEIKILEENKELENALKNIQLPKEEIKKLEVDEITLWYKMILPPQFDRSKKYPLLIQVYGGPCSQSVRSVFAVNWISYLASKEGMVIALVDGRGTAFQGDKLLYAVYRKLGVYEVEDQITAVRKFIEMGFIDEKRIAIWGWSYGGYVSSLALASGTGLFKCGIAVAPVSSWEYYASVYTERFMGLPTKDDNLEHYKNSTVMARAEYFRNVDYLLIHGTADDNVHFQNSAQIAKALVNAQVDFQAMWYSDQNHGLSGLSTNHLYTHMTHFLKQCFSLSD

N#C[C@@H]1CC(F)(F)CN1C(=O)CNC(=O)c1ccnc2ccc(OCCCN3CCN(C(=O)CN4CCN(CC(=O)O)CCN(CC(=O)O)CCN(CC(=O)O)CC4)CC3)cc12 [FAPI-04]
Plateau value (SUVmean) ([1]; hypothetical plateau, two phase exponential decay of heart SUVmean): 0.21 | Blood pool-clearence (T1/2 [min]) ([1]; rate determining half-life, two phase exponential decay of heart SUVmean 0.375-60 min): 7.1 min | inhibition of enzymatic FAP activity [2]: robust, dose-dependent FAP inhibition | equivalent dose of an exam ([3]; 200 MBq Ga-68): 3-4 mSv | effective dose ([3]; calculated with IDAC1/ICRP60): 1.66E-02 mSv/MBq | effective dose ([3]; calculated with IDAC2/ICRP103): 1.35E-02 mSv/MBq | effective dose ([3]; calculated with OLINDA): 1.64E-02 mSv/MBq | retention of the originally accumulated radioactivity (efflux) (HT-1080-FAP cells): 49% | highest enrichment within the FAP-expressing tumor ([4]; 177Lu labeled, after 2 h): 5.4 % ID/g | Tumor uptake 1 h ([4]; HT-1080-FAP tumor bearing nude mice, 1 h, mean ± SD, n = 3): 4.9 ± 0.82 % ID/g | Tumor uptake 4 h ([4]; HT-1080-FAP tumor bearing nude mice, 4 h, mean ± SD, n = 3): 5.4 ± 1.51 % ID/g | Tumor uptake 24 h ([4]; HT-1080-FAP tumor bearing nude mice, 24 h, mean ± SD, n = 3): 3.0 ± 0.23 % ID/g | Blood uptake [4, 6]: 1.70 ± 0.206 % ID/g | Brain uptake [4, 6]: 0.08 ± 0.010 % ID/g | Heart uptake [4, 6]: 0.80 ± 0.089 % ID/g | Intestines uptake [4, 6]: 0.66 ± 0.196 % ID/g | Kidneys uptake [4, 6]: 2.28 ± 0.477 % ID/g | Liver uptake [4, 6]: 0.73 ± 0.118 % ID/g | Lungs uptake [4, 6]: 1.50 ± 0.151 % ID/g | Muscle uptake [4, 6]: 0.92 ± 0.020 % ID/g | Spleen uptake [4, 6]: 0.48 ± 0.072 % ID/g | Tumor uptake [4, 6]: 4.89 ± 0.817 % ID/g | maximum SUV values in primary tumor, lymph node and bone metastases ([5]; 68Ga labeled, 1 h after i.v. administration, patients): ≤ 48.0 | background activity (SUV) ([5]; 68Ga labeled, 1 h p.i.): 2 | average SUVmax, lowest uptake group ([5]; 68Ga labeled, 1 h p.i., renal cell, differentiated thyroid, adenoid-cystic, gastric carcinoma, pheochromocytoma): < 6 | average SUVmax, highest uptake group ([5]; 68Ga labeled, 1 h p.i., sarcoma, esophageal, breast, cholangiocellular carcinoma, lung cancer): > 12 | decrease of tumor uptake (washout) ([5]; from 1 h to 3 h p.i., patients): 50%
